Source: US8853230B2, “Inhibitors of JAK” (Portola Pharmaceuticals, Inc., priority 2009, dated 2014)

Experiments:
JAK2 = biological target: T1, JAK2 (Homo sapiens, UniProt O60674); test: Z'-LYTE kinase assay, JAK2 tyrosine phosphorylation activity; assay type: biochemical
T1 construct: 5 μl of catalytic domain recombinant Kinase enzyme+Tyr peptide substrate (Invitrogen, Calif.); purchased Invitrogen
How it was run: (§1)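 FRET read-out (ex 400 nm, em 445 and 520 nm) after protease cleavage of non-phosphorylated Tyr6 peptide. Kinase step: catalytic-domain enzyme, peptide, ATP and compound, 1 h at RT, 1% DMSO. IC50 from a 4-parameter logistic fit of percent phosphorylation versus uninhibited control.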

Syk = Syk (Homo sapiens, UniProt P43405); test: Syk IC50 (Table 1; method not given); assay type: biochemical
JAK1 = biological target: T2, JAK1 (Homo sapiens, UniProt P23458); test: Z'-LYTE kinase assay, JAK1 tyrosine phosphorylation activity; assay type: biochemical; settings: read-out: JAK 1 IC50
T2 construct: 5 μl of catalytic domain recombinant Kinase enzyme+Tyr peptide substrate (Invitrogen, Calif.); purchased Invitrogen
T2 sequence (P23458 875-1153 limits assumed): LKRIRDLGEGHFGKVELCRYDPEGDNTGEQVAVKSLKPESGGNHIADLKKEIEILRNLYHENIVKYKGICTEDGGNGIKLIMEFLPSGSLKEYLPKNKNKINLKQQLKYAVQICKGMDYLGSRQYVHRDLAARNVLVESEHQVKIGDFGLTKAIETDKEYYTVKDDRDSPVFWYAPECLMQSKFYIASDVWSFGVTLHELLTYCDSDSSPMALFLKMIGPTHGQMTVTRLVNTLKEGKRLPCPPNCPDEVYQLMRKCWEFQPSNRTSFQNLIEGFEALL
How it was run: as §1

[1] = test system: IL4-induced phospho STAT6 formation in Ramos B lymphocytes; test: Inhibition of IL4-induced phospho STAT6 formation in Ramos B lymphocytes (flow cytometry); assay type: cell-based, human; settings: Homo sapiens; for inhibition at 0.2 µM: 200 nM compound, read-out: % Inhibition of IL-4 Induced STAT6 Phosphorylation 200 nM; for inhibition at 1 µM: 1 μM compound, read-out: % Inhibition of IL-4 Induced STAT6 Phosphorylation 1 μM
How it was run: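 Read-out: phospho-STAT6 (Y641) mean fluorescent intensity by intracellular flow cytometry, expressed as inhibition of the IL4-induced signal. Ramos B lymphocytes were given compound for 1 h at 37°C, then 1 ng/ml IL4 for 10 min, before fixation and methanol permeabilization.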

TYK2 = biological target: T3, TYK2 (Homo sapiens, UniProt P29597); test: Z'-LYTE kinase assay, TYK2 tyrosine phosphorylation activity; assay type: biochemical
T3 construct: 5 μl of catalytic domain recombinant Kinase enzyme+Tyr peptide substrate (Invitrogen, Calif.); purchased Invitrogen
T3 sequence (P29597 897-1176 limits assumed): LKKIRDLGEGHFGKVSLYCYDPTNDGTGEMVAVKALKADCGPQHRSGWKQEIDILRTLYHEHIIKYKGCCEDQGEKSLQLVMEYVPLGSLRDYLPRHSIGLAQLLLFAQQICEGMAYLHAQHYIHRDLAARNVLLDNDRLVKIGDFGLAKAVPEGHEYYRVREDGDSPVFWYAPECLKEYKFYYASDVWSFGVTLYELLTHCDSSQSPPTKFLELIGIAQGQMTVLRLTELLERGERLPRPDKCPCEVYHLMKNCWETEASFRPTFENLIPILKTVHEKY
How it was run: as §1

JAK3 = biological target: T4, JAK3 (Homo sapiens, UniProt P52333); test: Z'-LYTE kinase assay, JAK3 tyrosine phosphorylation activity; assay type: biochemical
T4 construct: 5 μl of catalytic domain recombinant Kinase enzyme+Tyr peptide substrate (Invitrogen, Calif.); purchased Invitrogen
T4 sequence (P52333 822-1111 limits assumed): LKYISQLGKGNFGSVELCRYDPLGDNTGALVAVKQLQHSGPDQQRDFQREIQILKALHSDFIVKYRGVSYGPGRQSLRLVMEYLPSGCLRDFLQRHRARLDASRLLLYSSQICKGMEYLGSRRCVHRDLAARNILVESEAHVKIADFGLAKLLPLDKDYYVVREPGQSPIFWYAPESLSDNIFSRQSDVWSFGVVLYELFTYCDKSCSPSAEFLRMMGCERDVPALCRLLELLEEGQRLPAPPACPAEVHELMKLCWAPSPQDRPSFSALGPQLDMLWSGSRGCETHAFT
How it was run: as §1

T1 sequence (O60674 849-1124 limits assumed): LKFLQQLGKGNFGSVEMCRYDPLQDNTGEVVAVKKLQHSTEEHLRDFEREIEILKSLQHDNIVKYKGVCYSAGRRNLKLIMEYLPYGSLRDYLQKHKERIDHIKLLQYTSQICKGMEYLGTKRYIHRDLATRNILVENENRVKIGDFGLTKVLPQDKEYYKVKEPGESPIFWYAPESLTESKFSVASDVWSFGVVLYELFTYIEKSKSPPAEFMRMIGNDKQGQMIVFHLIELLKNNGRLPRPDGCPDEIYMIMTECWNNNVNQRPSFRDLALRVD

Row | SMILES | IC50 (JAK2) | IC50 (Syk) | IC50 (JAK1) | IC50 (TYK2) | IC50 (JAK3) | inhibition at 0.2 µM [1] | inhibition at 1 µM [1]
1 | CC(=O)Nc1cccc(Nc2ncc(C(N)=O)c(N[C@H](CO)Cc3cnc[nH]3)n2)c1 [Example 60, (S)-2-(3-acetamidophenylamino)-4-(1-hydroxy-3-(1H-imidazol-5-yl)propan-2-ylamino)pyrimidine-5-carboxamide] | 100 to 1000 nM | > 1000 nM | 100 to 1000 nM | 100 to 1000 nM | 10 to 100 nM | 12.5% | 23%
2 | NC(=O)c1cnc(Nc2cccc(NC(=O)C3CC3)c2)nc1NCC(F)(F)F [Example 5, 2-(3-(cyclopropanecarboxamido)phenylamino)-4-(2,2,2-trifluoroethylamino)pyrimidine-5-carboxamide] | 100 to 1000 nM | 100 to 1000 nM | 100 to 1000 nM | 10 to 100 nM | 10 to 100 nM | – | –
3 | CNC(=O)Nc1cccc(Nc2ncc(C(N)=O)c(NCc3ccccc3)n2)c1 [Example 39, 4-(benzylamino)-2-(3-(3-methylureido)phenylamino)pyrimidine-5-carboxamide] | 10 to 100 nM | > 1000 nM | 10 to 100 nM | 1 to 10 nM | 1 to 10 nM | 15% | 60%
4 | CC(=O)Nc1cccc(Nc2ncc(C(N)=O)c(NC[C@H](C)c3ccccc3)n2)c1 [Example 81, (R)-2-(3-acetamidophenylamino)-4-(2-phenylpropylamino)pyrimidine-5-carboxamide] | 10 to 100 nM | > 1000 nM | 100 to 1000 nM | 10 to 100 nM | 10 to 100 nM | – | –
5 | NC(=O)c1cnc(Nc2cccc(NC(=O)N3CCCC3)c2)nc1NC1CCCC1 [Example 37, 4-(cyclopentylamino)-2-(3-(pyrrolidine-1-carboxamido)phenylamino)pyrimidine-5-carboxamide] | 10 to 100 nM | > 1000 nM | 10 to 100 nM | 1 to 10 nM | 1 to 10 nM | – | –
6 | CC(=O)Nc1cccc(Nc2ncc(C(N)=O)c(N[C@@H]3CCCNC3)n2)c1 [Example 66, (R)-2-(3-acetamidophenylamino)-4-(piperidin-3-ylamino)pyrimidine-5-carboxamide] | 100 to 1000 nM | > 1000 nM | 100 to 1000 nM | 100 to 1000 nM | 100 to 1000 nM | – | –
7 | CC(=O)Nc1cccc(Nc2ncc(C(N)=O)c(NCC(=O)N3CCCC3)n2)c1 [Example 65, 2-(3-acetamidophenylamino)-4-(2-oxo-2-(pyrrolidin-1-yl)ethylamino)pyrimidine-5-carboxamide] | 100 to 1000 nM | > 1000 nM | > 1000 nM | 10 to 100 nM | 10 to 100 nM | – | –
8 | CC(=O)Nc1cccc(Nc2ncc(C(N)=O)c(N[C@@H](C)C(N)=O)n2)c1 [Example 85, (S)-2-(3-acetamidophenylamino)-4-(1-amino-1-oxopropan-2-ylamino)pyrimidine-5-carboxamide] | 100 to 1000 nM | > 1000 nM | 100 to 1000 nM | 10 to 100 nM | 10 to 100 nM | – | –
9 | CC(=O)Nc1cccc(Nc2ncc(C(N)=O)c(NC[C@@H](O)CO)n2)c1 [Example 83, (R)-2-(3-acetamidophenylamino)-4-(2,3-dihydroxypropylamino)pyrimidine-5-carboxamide] | 100 to 1000 nM | > 1000 nM | 100 to 1000 nM | 10 to 100 nM | 10 to 100 nM | – | –
10 | CC(=O)Nc1cccc(Nc2ncc(C(N)=O)c(NCC(F)(F)F)n2)c1 [Example 7, 2-(3-acetamidophenylamino)-4-(2,2,2-trifluoroethylamino)pyrimidine-5-carboxamide] | 10 to 100 nM | 100 to 1000 nM | 10 to 100 nM | 1 to 10 nM | 1 to 10 nM | – | –

Now from value to compound, other results behind:

Row | IC50 (JAK2) | IC50 (Syk) | IC50 (JAK1) | IC50 (TYK2) | IC50 (JAK3) | SMILES | inhibition at 0.2 µM [1] | inhibition at 1 µM [1]
11 | 1 to 10 nM | > 1000 nM | 10 to 100 nM | 10 to 100 nM | 1 to 10 nM | COCC(=O)N(C)c1cccc(Nc2ncc(C(N)=O)c(NC3CCCC3)n2)c1 [Example 89, 4-(cyclopentylamino)-2-(3-(2-methoxy-N-methylacetamido)phenylamino)pyrimidine-5-carboxamide] | – | –
12 | 1 to 10 nM | > 1000 nM | 10 to 100 nM | 10 to 100 nM | 1 to 10 nM | CC(=O)N(C)c1cccc(Nc2ncc(C(N)=O)c(NC3CCCC3)n2)c1 [Example 78, 4-(cyclopentylamino)-2-(3-(N-methylacetamido)phenylamino)pyrimidine-5-carboxamide] | – | –
13 | 100 to 1000 nM | > 1000 nM | > 1000 nM | 100 to 1000 nM | 10 to 100 nM | COC(=O)Nc1cc(Nc2ncc(C(N)=O)c(N[C@H](C)c3ccccc3)n2)ccc1Cl [Example 129, (R)-methyl 5-(5-carbamoyl-4-(1-phenylethylamino)pyrimidin-2-ylamino)-2-chlorophenylcarbamate] | 4% | 16.7%
14 | 10 to 100 nM | > 1000 nM | 10 to 100 nM | 10 to 100 nM | 1 to 10 nM | COCC(=O)N(C)c1cccc(Nc2ncc(C(N)=O)c(NCc3ccccc3)n2)c1 [Example 90, 4-(benzylamino)-2-(3-(2-methoxy-N-methylacetamido)phenylamino)pyrimidine-5-carboxamide] | – | –
15 | 1 to 10 nM | > 1000 nM | 100 to 1000 nM | 10 to 100 nM | 1 to 10 nM | COCC(=O)N(C)c1cccc(Nc2ncc(C(N)=O)c(N[C@H](C)c3ccccc3)n2)c1 [Example 86, (R)-2-(3-(2-methoxy-N-methylacetamido)phenylamino)-4-(1-phenylethylamino)pyrimidine-5-carboxamide] | – | –
16 | 10 to 100 nM | > 1000 nM | 10 to 100 nM | 10 to 100 nM | 1 to 10 nM | CC(=O)N(C)c1cccc(Nc2ncc(C(N)=O)c(NCc3ccccc3)n2)c1 [Example 79, 4-(benzylamino)-2-(3-(N-methylacetamido)phenylamino)pyrimidine-5-carboxamide] | – | –
17 | 10 to 100 nM | 100 to 1000 nM | 10 to 100 nM | 10 to 100 nM | 10 to 100 nM | COCC(=O)Nc1cccc(Nc2ncc(C(N)=O)c(NCC(F)(F)F)n2)c1 [Example 6, 2-(3-(2-methoxyacetamido)phenylamino)-4-(2,2,2-trifluoroethylamino)pyrimidine-5-carboxamide] | – | –
18 | 10 to 100 nM | > 1000 nM | 100 to 1000 nM | 10 to 100 nM | 10 to 100 nM | CC(=O)Nc1cccc(Nc2ncc(C(N)=O)c(N[C@H](CO)Cc3ccccc3)n2)c1 [Example 76, (S)-2-(3-acetamidophenylamino)-4-(1-hydroxy-3-phenylpropan-2-ylamino)pyrimidine-5-carboxamide] | – | –
19 | 10 to 100 nM | 100 to 1000 nM | 10 to 100 nM | 10 to 100 nM | 1 to 10 nM | COC(CNc1nc(Nc2cccc(NC(C)=O)c2)ncc1C(N)=O)c1ccccc1 (stereo not drawn) [Example 84, 2-(3-acetamidophenylamino)-4-(2-methoxy-2-phenylethylamino)pyrimidine-5-carboxamide] | – | –
20 | 100 to 1000 nM | > 1000 nM | 100 to 1000 nM | 10 to 100 nM | 10 to 100 nM | CC(=O)Nc1cccc(Nc2ncc(C(N)=O)c(NCCN3CCOCC3)n2)c1 [Example 80, 2-(3-acetamidophenylamino)-4-(2-morpholinoethylamino)pyrimidine-5-carboxamide] | – | –
21 | 10 to 100 nM | 100 to 1000 nM | 10 to 100 nM | 10 to 100 nM | 10 to 100 nM | COC(=O)Nc1cccc(Nc2ncc(C(N)=O)c(NCC(F)(F)F)n2)c1 [Example 4, Methyl 3-(5-carbamoyl-4-(2,2,2-trifluoroethylamino)pyrimidin-2-ylamino)phenylcarbamate] | – | –
22 | 1 to 10 nM | > 1000 nM | 100 to 1000 nM | 10 to 100 nM | 1 to 10 nM | CC(=O)N(C)c1cccc(Nc2ncc(C(N)=O)c(N[C@H](C)c3ccccc3)n2)c1 [Example 87, (R)-2-(3-(N-methylacetamido)phenylamino)-4-(1-phenylethylamino)pyrimidine-5-carboxamide] | – | –
23 | 10 to 100 nM | 100 to 1000 nM | 100 to 1000 nM | 10 to 100 nM | 10 to 100 nM | CC(=O)Nc1cccc(Nc2ncc(C(N)=O)c(NC[C@H](C)O)n2)c1 [Example 82, (S)-2-(3-acetamidophenylamino)-4-(2-hydroxypropylamino)pyrimidine-5-carboxamide] | – | –
24 | 10 to 100 nM | > 1000 nM | 100 to 1000 nM | 10 to 100 nM | 10 to 100 nM | CC(=O)N(C)c1cccc(Nc2ncc(C(N)=O)c(NC(C)C)n2)c1 [Example 77, 4-(isopropylamino)-2-(3-(N-methylacetamido)phenylamino)pyrimidine-5-carboxamide] | – | –
